Laboratory results reported in patent US10125097B2, “1- [1-(benzoyl)-pyrrolidine-2-carbonyl]-pyrrolidine-2-carbonitrile derivatives” (UNIVERSITAT DE BARCELONA, priority 2012, dated 2018).

Test system: MK-801-treated rodents
Test: Novel object recognition (NOR) task in MK-801 cognition impairment model
Format: in vivo, rodents (mice or rats)
Settings: 5 mg/Kg s.c.; MK-801 0.2 mg/kg i.p.; FIG. 1
Experimental: The new compounds were evaluated for their efficacy as cognition enhancers in a pharmacological model for cognitive impairment. The effects of the new compounds were evaluated in untreated and MK-801-treated rodents (mice or rats). MK-801 is a non-competitive antagonist of the N-Methyl-D-aspartate (NMDA) receptor which impairs animal performance in various learning and memory paradigms (Castellano C et al., Curr. Drug Targets 2001; 2:273-83; Riedel G et al., Behav. Brain Res. 2003; 140:1-47). MK-801 also produces various effects on rodent behavior, including deficits in sensory processing, hypermotility, stereotypy and ataxia. […]
The novel object recognition (NOR) task is based on the natural preference of rodents to explore novel objects (Ennaceur A et al., Behav. Brain Res. 1988; 31:47-59). […] The animals were then allowed to explore freely for 10 min, and the time spent exploring each object was recorded. […] An index of discrimination was calculated as follows: time spent exploring the new object minus time spent exploring the old object, divided by the total time exploring both objects, and multiplied by 100. […]

COc1cc(C(=O)N2CC(F)(F)C[C@H]2C(=O)N2CCC[C@H]2C#N)cc(OC)c1OCc1ccccc1 [Example 4, (S)-1-((2S)-1-(4-(benzyloxy)-3,5-dimethoxybenzoyl)-4,4-difluoropyrrolidine-2-carbonyl)pyrrolidine-2-carbonitrile]
Reversal of MK-801-induced memory impairment in the NOR test: able to reverse MK-801-induced memory impairment
